Measurements reported in patent US11352396B2, “Antimicrobial peptides and methods of using same” (Zoetis Services LLC, priority 2017, dated 2022).

Tests used:
S. aureus ATCC 29213 = assay type: cell-based; design: key to SA 29213: MIC in μM (lowest conc. with no visible growth); conditions: S. aureus 29213, Table 6
Protocol: (§1) Peptides according to SEQ ID NOs as listed in Table 1 were prepared by a commercial manufacturer (CS Bio, Menlo Park, Calif.) using solid phase synthesis. Antimicrobial activity was assessed by determining the Minimal Inhibitory Concentration (MIC) against S. aureus and E. coli. Briefly, Microbroth MICs were performed using CLSI methodology (VET01-S2). For S. aureus and E. coli ATCC strains, TSA with 5% lysed horse blood agar was used for overnight culturing at 37° C. ambient air. A 0.5 mM stock for each peptide was made with cell culture water, 0.01% acetic acid and serially diluted and spotted (10 μL) in a 96-well plate for in assay dose titration concentration of 50 μM to 0.05 μM. 0.5 McFarland Standard of each strain was diluted 1:250 in Mueller-Hinton Broth (MHB). 90 μL of culture suspension was then added upon drug in the 96-well plate for overnight incubation for 18-20 hours. The MIC was determined visually at the first well of no visible growth at the corresponding concentration.

E. coli ATCC 25922 = assay type: cell-based; conditions: E. coli 25922, Table 6
Protocol: as §1

[1] = test system: MSSP (Methicillin-Susceptible Staphylococcus pseudintermedius); assay: MIC against selected strains of MSSP; assay type: cell-based; design: MIC MSSP 49051 / MIC MSSP 81923 / MIC MSSP 84250 / Effect on MSSP 86000 / Effect on MSSP 72036 / Effect on MSSP 78032: unit not given beside the values; Effect on MSSP 71990 / Effect on MSSP 86001 / Effect on MSSP 72191 / Effect on MSSP 76986 / Effect on MSSP 77378 / Effect on MSSP 81923 / Effect on MSSP 84250 / Effect on MSSP 84658: unit: µM; conditions: for SP 49051: S. pseudintermedius 49051, Table 6; for Effect on MSSP 71990: strain 71990, Table 5; for Effect on MSSP 72036: strain 72036, Table 5; for Effect on MSSP 72191: strain 72191, Table 5; for Effect on MSSP 76986: strain 76986, Table 5; for Effect on MSSP 77378: strain 77378, Table 5; for Effect on MSSP 78032: strain 78032, Table 5; for Effect on MSSP 81923: strain 81923, Table 5; for Effect on MSSP 84250: strain 84250, Table 5; for Effect on MSSP 84658: strain 84658, Table 5; for Effect on MSSP 86000: strain 86000, Table 5; for Effect on MSSP 86001: strain 86001, Table 5
Method in brief: (§2)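 MIC read by eye as the first well showing no growth after 18–20 h incubation. Cultures at 0.5 McFarland were diluted 1:250 in Mueller-Hinton broth and exposed to peptide over 50 μM–0.05 μM in the assay, per CLSI VET01-S2 microbroth method.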

[2] = test system: MRSP (Methicillin-Resistant Staphylococcus pseudintermedius); assay: MIC against selected strains of MRSP; assay type: cell-based; design: key to MIC MRSP 72192 / MIC MRSP 76923 / MR 71994 / Mr 88493 / MR 72035 / MR 72192 / MR 76923 / MR 79882 / MR 80279 / MR 81926 / MR 86002 / MR 87665: MIC in μM (visual, first well with no growth); conditions: for MR 71994: MRSP strain 71994, Table 6; for MR 72035: MRSP strain 72035, Table 6; for MR 72192: MRSP strain 72192, Table 6; for MR 76923: MRSP strain 76923, Table 6; for MR 79882: MRSP strain 79882, Table 6; for MR 80279: MRSP strain 80279, Table 6; for MR 81926: MRSP strain 81926, Table 6; for MR 86002: MRSP strain 86002, Table 6; for MR 87665: MRSP strain 87665, Table 6; for Mr 88493: MRSP strain 88493, Table 6
Method in brief: as §2

[3] = test system: Canine-derived epithelial keratinocyte (CPEK) cells; assay type: cell-based
Method in brief: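 Viability was read by CellTiter-Glo luminescence after overnight exposure (37 °C, 5% CO2) of canine keratinocytes to a peptide range of 50–0.05 μM. Percent effect used phosphate buffer as the zero control and 0.1% Triton X-100 as the full-effect control.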

cRBC = assay type: cell-based, canine
Method in brief: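 Percent lysis, measured by absorbance at 405 nm, used 1% Triton X-100 as full effect and phosphate buffer as zero. Peptides spanned 50 µM–0.05 µM and were held with plasma-depleted washed erythrocytes at 37 °C for 1 h.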

Substance	SA 29213 (S. aureus ATCC 29213)	EC 25922 (E. coli ATCC 25922) [µM]	SP 49051 [1]	Effect on MSSP 71990 [1]	Effect on MSSP 72036 [1]	Effect on MSSP 72191 [1]	Effect on MSSP 76986 [1]	Effect on MSSP 77378 [1]	Effect on MSSP 78032 [1]	Effect on MSSP 81923 [1]	Effect on MSSP 84250 [1]	Effect on MSSP 84658 [1]	Effect on MSSP 86000 [1]	Effect on MSSP 86001 [1]	MR 71994 [2]	MR 72035 [2]	MR 72192 [2]	MR 76923 [2]	MR 79882 [2]	MR 80279 [2]	also measured
99 (KWCFFVCYRGICYRRCRD; Artificial Antimicrobial peptide) [compound 99]	6.2	1.6	3.1	1.6	1.6	3.1	1.6	1.6	1.6	1.6	3.1	3.1	3.1	1.6	1.6	3.1	3.1	1.6	1.6	1.6	MR 81926 [2]: 3.1; MR 86002 [2]: 3.1; MR 87665 [2]: 1.6; Mr 88493 [2]: 1.6; CPEK (50 μM) [3]: 19.9; cRBC (50 μM) (cRBC): 100.0
100 (KWCFWVCYRGICYRRCRD; Artificial Antimicrobial peptide) [compound 100]	6.2	0.8	1.6	1.6	1.6	3.1	1.6	3.1	1.6	1.6	1.6	1.6	1.6	1.6	1.6	3.1	1.6	1.6	1.6	1.6	MR 81926 [2]: 1.6; MR 86002 [2]: 1.6; MR 87665 [2]: 1.6; Mr 88493 [2]: 3.1; CPEK (50 μM) [3]: 29.5; cRBC (50 μM) (cRBC): 100.0
102 (KWCFRACYRGICYRRCRD; Artificial Antimicrobial peptide) [compound 102]	6.2	1.6	1.6	1.6	1.6	3.1	1.6	0.8	1.6	1.6	1.6	1.6	1.6	1.6	3.1	3.1	1.6	1.6	1.6	1.6	MR 81926 [2]: 1.6; MR 86002 [2]: 1.6; MR 87665 [2]: 1.6; Mr 88493 [2]: 3.1; CPEK (50 μM) [3]: −2.1; cRBC (50 μM) (cRBC): 23.9
103 (KWCFRVCKRGICYRRCRD; Artificial Antimicrobial peptide) [compound 103]	25	6.2	3.1	3.1	3.1	3.1	3.1	3.1	3.1	3.1	6.2	3.1	3.1	3.1	3.1	3.1	3.1	3.1	3.1	3.1	MR 81926 [2]: 3.1; MR 86002 [2]: 3.1; MR 87665 [2]: 3.1; Mr 88493 [2]: 3.1; CPEK (50 μM) [3]: −0.5; cRBC (50 μM) (cRBC): 7.9
104 (KWCFRVCYFGICYRRCRD; Artificial Antimicrobial peptide) [compound 104]	6.2	3.1	1.6	1.6	3.1	1.6	1.6	1.6	1.6	3.1	3.1	1.6	3.1	1.6	3.1	1.6	1.6	1.6	1.6	1.6	MR 81926 [2]: 1.6; MR 86002 [2]: 1.6; MR 87665 [2]: 3.1; Mr 88493 [2]: 3.1; CPEK (50 μM) [3]: 6.0; cRBC (50 μM) (cRBC): 100.6
